Values after ≈ are worked out from the molar mass of the structure shown. Like-named read-outs stand apart in the source and are kept apart here.
What was measured:
[1] = system: rabbit platelet aggregation; experiment: Inhibition of rabbit platelet aggregation (turbidimetric, platelet rich plasma); assay type: cell-based, rabbit (male Japanese White); conditions: Oryctolagus cuniculus
Procedure: Inhibitory activity of the nitro aliphatic compounds of this invention against rabbit platelet aggregation was measured according to the method described below.
Blood was collected from the central ear arteries of male Japanese White rabbit (2.5 to 3.0 kg body weight). The blood was prevented from coagulation with 1 volume of 3.8% sodium citrate to 9 volumes of blood. Platelet rich plasma (PRP) was prepared by centrifugation of the blood at 1300 rpm for 10 min. at 10° C. The PRP was diluted with platelet poor plasma obtained by further centrifugation of the blood at 3000 rpm for 10 min. The platelet counts in the PRP used for aggregation studies were about 4.0×10^5 platelets/mm^3. Aggregometry was performed with platelet aggregating agents in a SIENCO dual sample aggregometer (DP-247E) at 37° C., using 0.3 ml combined volume of PRP and reagents in a cylindrical glass cuvette under constant stirring with a magnetic stirring bar. Platelet aggregation was measured turbidimetrically by recording changes in the light transmission of PRP during aggregation. Activities of inhibitors were expressed as IC50 values i.e. concentrations required to inhibit the platelet aggregation responses by 50%. Collagen was used in amounts (2 to 20 μg/ml for PRP) sufficient to induce a response that was 80 to 90% of the maximum obtainable. Arachidonic acid was used at a final concentration of 5 μM. Similarly a final concentration of adenosine di-phosphate (ADP), usually 1 to 5 μM was choosen to induce approximately 75% of the maximum aggregation. Thrombin was used at a final concentration of 0.3 U/ml.

[2] = system: blood pressure; experiment: Hypotensive activity in anesthetized rat; assay type: in vivo, rat (Sprague-Dowley); conditions: intravenous, urethane-anesthetized rat
Procedure: A 8 weeks-old Sprague-Dowley strain rat was anesthetized with urethane (0.7 g/kg, i.p). Blood pressure was recorded from femoral artery using a transducer coupled to a Biophysiograph 180 system (made by Sanei Sokuki Co., Ltd.). The femoral vein was cannulated to permit intravenous injection of the test compound. The test compound was dissolved in saline and injected in a volume of 0.2 ml.

[3] = Inducer: Thrombin (0.3 U/ml), Table 2, read-out: IC50, platelet aggregation

Row | Compound | IC50 [1, 3] | other results
1 | CC/C(=C\C(=NO)C(N)=O)C(C)[N+](=O)[O-] (stereo not drawn) [Example 1, (E)-4-ethyl-2-hydroxyimino-5-nitro-3-hexenamide] | – | IC50 ([1]; inducer: ADP (usually 1 to 5 μM), read-out: IC50 value, platelet aggregation): 0.15 µg/mL (≈ 0.697 µM); IC50 ([1]; inducer: Arachidonic acid (5 μM), read-out: IC50 value, platelet aggregation): 0.75 µg/mL (≈ 3.48 µM); IC50 ([1]; inducer: Collagen (2 to 20 μg/ml), read-out: IC50 value, platelet aggregation): 0.07 µg/mL (≈ 0.325 µM); IC50 ([1]; inducer: Thrombin (0.3 U/ml), Table 1, read-out: IC50 value, platelet aggregation): 0.15 µg/mL (≈ 0.697 µM); Hypotensive effect, Duration ([2]; 10 μg/kg): 1.5 min; Hypotensive effect, Maximal decrease ([2]; 10 μg/kg): 10 mm Hg; Hypotensive effect, Duration ([2]; 100 μg/kg): 4 min; Hypotensive effect, Maximal decrease ([2]; 100 μg/kg): 40 mm Hg
2 | CCC(=CC(=NO)C(=O)N1CCN(C=O)CC1)C(C)[N+](=O)[O-] (stereo not drawn) [Example 4, 1-Formyl-4-(4-ethyl-2-hydroxyimino-5-nitro-3-hexenoyl)piperazine] | 0.3 µg/mL (≈ 0.961 µM) | –
3 | CCC(=CC(=NO)C(=O)N[C@H](C(=O)O)[C@@H](C)O)C(C)[N+](=O)[O-] (stereo partly drawn) [Example 10, N-(4-Ethyl-2-hydroxyimino-5-nitro-3-hexenoyl)-L-threonine] | 0.3 µg/mL (≈ 0.945 µM) | –
4 | CCC(=CC(=NO)C(=O)NCc1ccccc1)C(C)[N+](=O)[O-] (stereo not drawn) [Example 11, N-Benzyl-4-ethyl-2-hydroxyimino-5-nitro-3-hexenamide] | 0.15 µg/mL (≈ 0.491 µM) | –
5 | CCC(=CC(=NO)C(N)=O)C(c1ccc(OC)cc1)[N+](=O)[O-] (stereo not drawn) [Example 14, 4-Ethyl-2-hydroxyimino-5-(4-methoxyphenyl)-5-nitro-3-pentenamide] | 0.3 µg/mL (≈ 0.976 µM) | –
6 | CCC(=CC(=NO)C(=O)NCCCC(=O)O)C(C)[N+](=O)[O-] (stereo not drawn) [Example 15, N-[4-Ethyl-2-hydroxyimino-5-nitro-3-hexenoyl]-4-aminobutyric acid] | 0.75 µg/mL (≈ 2.49 µM) | –
7 | CCC(=CC(COC(C)=O)=NO)C(C)[N+](=O)[O-] (stereo not drawn) [Example 23, 1-Acetoxy-4-ethyl-2-hydroxyimino-5-nitro-3-hexene] | 0.15 µg/mL (≈ 0.614 µM) | –
8 | CCC(CC(=NO)C(=O)NC(C)(C)C)C(C)[N+](=O)[O-] (stereo not drawn) [Example 24, N-t-butyl-4-ethyl-2-hydroxyimino-5-nitrohexanamide] | 1.5 µg/mL (≈ 5.49 µM) | –
9 | CCC(CC(=NO)C(N)=O)C(C)[N+](=O)[O-] (stereo not drawn) [Example 25, 4-Ethyl-2-hydroxyimino-5-nitro-hexanamide] | 6 µg/mL (≈ 27.6 µM) | –

Now from value to molecule, other results behind:

Row | IC50 [1, 3] | Compound | other results
10 | 0.15 µg/mL (≈ 0.553 µM) | CCCCNC(=O)C(C=C(CC)C(C)[N+](=O)[O-])=NO (stereo not drawn) [Example 2, N-n-butyl-4-ethyl-2-hydroxyimino-5-nitro-3-hexenamide] | –
11 | 0.3 µg/mL (≈ 1.31 µM) | CCC(=CC(=NO)C(=O)NC)C(C)[N+](=O)[O-] (stereo not drawn) [Example 3, N-Methyl-4-ethyl-2-hydroxyimino-5-nitro-3-hexenamide] | –
12 | 0.15 µg/mL (≈ 0.549 µM) | CCC(=CC(=NO)C(=O)NCC(=O)O)C(C)[N+](=O)[O-] (stereo not drawn) [Example 6, N-(4-Ethyl-2-hydroxyimino-5-nitro-3-hexenoyl)glycine] | –
13 | 0.75 µg/mL (≈ 2.65 µM) | CCC(=CC(=NO)C(=O)N1CCCCC1)C(C)[N+](=O)[O-] (stereo not drawn) [Example 7, N-(4-Ethyl-2-hydroxyimino-5-nitro-3-hexenoyl)piperidine] | –
14 | 1.5 µg/mL (≈ 7.61 µM) | CCC(=CC(C#N)=NO)C(C)[N+](=O)[O-] (stereo not drawn) [Example 17, 4-Ethyl-2-hydroxyimino-5-nitro-3-hexenenitrile] | –
15 | 3 µg/mL (≈ 15 µM) | CCC(=CC(C=O)=NO)C(C)[N+](=O)[O-] (stereo not drawn) [Example 18, 4-Ethyl-2-hydroxyimino-5-nitro-3-hexenal] | –
16 | 0.07 µg/mL (≈ 0.287 µM) | CCOC(=O)C(C=C(CC)C(C)[N+](=O)[O-])=NO (stereo not drawn) [Example 19, Ethyl 4-ethyl-2-hydroxyimino-5-nitro-3-hexenoate] | –
17 | 0.15 µg/mL (≈ 0.522 µM) | CCC(=CC(=NO)C(=O)NCC(=O)OC)C(C)[N+](=O)[O-] (stereo not drawn) [Example 20, Methyl 2-[4-ethyl-2-hydroxyimino-5-nitro-3-hexenoylamino]acetate] | –
18 | 0.15 µg/mL (≈ 0.697 µM) | CCC(=CC(C=NO)=NO)C(C)[N+](=O)[O-] (stereo not drawn) [Example 21, 4-ethyl-2-hydroxyimino-5-nitro-3-hexenaldehyde oxime] | –
19 | 0.75 µg/mL (≈ 3.71 µM) | CCC(=CC(CO)=NO)C(C)[N+](=O)[O-] (stereo not drawn) [Example 22, 4-ethyl-2-hydroxyimino-5-nitro-3-hexen-1-ol] | –
20 | 6 µg/mL (≈ 34.8 µM) | CCC(=CC=NO)C(C)[N+](=O)[O-] (stereo not drawn) [Example 28, 3-ethyl-4-nitro-2-pentenaloxime] | –

Source: patent US4767768A, “Nitro aliphatic compounds, process for preparation thereof and use thereof” (Fujisawa Pharmaceutical Co., Ltd., priority 1982, dated 1988)
